{"source": "patent US20030225002A1", "about": "“Co-therapy for the treatment of migraine comprising anticonvulsant derivatives and anti-migraine agents” (priority 2002, published 2003)", "key": {"subjects with migraine": {"tested_on": "subjects with migraine", "experiment": "Clinical Study Trials #1 and #2: severity of nausea associated with migraine headaches", "assay_type": "in vivo, human", "conditions": "for Severity of Nausea Associated Migraine Headaches, Baseline / Severity of Nausea Associated Migraine Headaches, Double-Blind / Severity of Nausea Associated Migraine Headaches, Difference: scale 0 to 3; for Severity of Nausea Associated Migraine Headaches, Baseline / Severity of Nausea Associated Migraine Headaches, Double-Blind: triptan rescue therapy; for Severity of Nausea Associated Migraine Headaches, Double-Blind: Double-Blind Phase; for Severity of Nausea Associated Migraine Headaches, Difference: Double-Blind minus Baseline", "description": "The primary objective of these studies was to evaluate the safety and efficacy of three doses of topiramate (50, 100, and 200 mg/day) versus placebo in the prophylaxis of migraine based on the change in the monthly (28 day) migraine period rate from the Prospective Baselin,e Period to the Double-Blind Phase. The secondary objectives for the studies were to assess dose response relationship, and to evaluate the effect of prophylactic treatment with topiramate (50, 100, and 200 mg/day) versus placebo on Health-Related Quality of Life (HRQL).\nThe studies were randomized, double-blind, placebo-controlled, parallel-group, multicenter studies. Male and female subjects were randomized equally to the four treatment groups.\nWhile the IHS criteria was used to establish the diagnosis at study entry, the evaluation of efficacy was based on migraine periods. A migraine period was defined as the length of time between the onset and cessation of painful migraine symptoms. This period could last up to, but no longer than, 24 hours. If the painful symptoms persisted more than 24 hours after their initial onset, this was considered to be a new, distinct migraine period. If symptoms recurred within 24 hours of the initial onset, this was considered part of the same, initial period.\nSubjects who completed the Baseline Phase and met the entry criteria were randomized to one of four treatment groups: 50 mg/day topiramate, 100 mg/day topiramate, 200 mg/day topiramate or placebo. The Double-Blind Phase had two periods: Titration and Maintenance, which are described in more detail below.\nThe Titration Period immediately followed the Baseline Phase and extended for eight weeks (56 days). During this period, subjects randomized to topiramate were started at a dose of 25 mg/day and the daily dose was increased by 25 mg weekly until they reach their assigned dose (or maximum tolerated dose, whichever is less). From the third week of Titration until the end of the Maintenance Period, a maximum of two dose level reductions were permitted for unacceptable tolerability problems. If the subject was still in the Titration Period after a dose reduction, rechallenge may have occurred in an attempt to achieve the subject's assigned dose, and, if unsuccessful, the dose may have been reduced again to the original reduced dose. Subjects who had their study medication dose decreased twice, and were still experiencing unacceptable tolerability problems that warranted additional dose reductions, exited the study. Clinic visits occurred on Day 29 (Visit 3) and Day 57 (Visit 4/End of Titration).\nDuring this 18-week period, the subjects remained on the dose of study medication reached at the end of the Titration Period (the assigned dose or the maximum tolerated dose). If the subject experienced unacceptable tolerability problems, the dose was reduced, only one dose reduction was permitted in the maintenance. No rechallenge was permitted during the Maintenance Period, so that subject continued on the reduced dose for the remainder of the period. Subjects who already had their study medication dose decreased by two levels, and were still experiencing unacceptable tolerability problems that warranted additional dose reductions exited the study. Clinic visits occurred on Day 85 (Visit 5), Day 113 (Visit 6), Day 141 (Visit 7) and Day 183 (Visit 8/ Double-Blind Final Visit or Early Withdrawal).\nSubjects were randomized to one of four treatment groups: a) placebo, b) 50 mg/day topiramate, c) 100 mg/day topiramate, or d) 200 mg/day topiramate. All subjects received study medication in a b.i.d. dosing regimen except during the first week of Titration, during which they took single evening doses.\nIn keeping with good pain management practices, subjects enrolled in these studies were permitted to take acute abortive/rescue medication as indicated for the treatment of pain during migraine/headache attacks. […]"}, "[1]": {"tested_on": "refractory migraine (migraine without aura)", "experiment": "Case Study 2: refractory migraine without aura", "assay_type": "in vivo, human", "conditions": "75 mg/day topiramate, 20 mg/day CORGARD and 20 mg/day CELEXA", "description": "The patient was a person with a lifelong history of refractory migraine (migraine without aura), averaging 8 migraines per month. […] The patient was started on topiramate at 25 mg/day, with dosage increasing to 75 mg/day. Simultaneously, the beta-blocker, CORGARD dosage was decreased to 20 mg/day, with CELEXA at 20 mg/day also continued."}}, "data": [{"smiles": "CC1(C)O[C@@H]2[C@@H](CO[C@@]3(COS(N)(=O)=O)OC(C)(C)O[C@@H]23)O1", "note": "[topiramate, 2,3:4,5-bis-O-(1-methylethylidene)-β-D-fructopyranose sulfamate]", "values": [{"measurement": "Severity of Nausea Associated Migraine Headaches, Baseline", "setting": "subjects with migraine; TPM 50 mg", "value": 1.17}, {"measurement": "Severity of Nausea Associated Migraine Headaches, Double-Blind", "setting": "subjects with migraine; TPM 50 mg", "value": 1.17}, {"measurement": "Severity of Nausea Associated Migraine Headaches, Difference", "setting": "subjects with migraine; TPM 50 mg", "value": "−0.01"}, {"measurement": "Severity of Nausea Associated Migraine Headaches, Baseline", "setting": "subjects with migraine; TPM 100 mg", "value": 1.22}, {"measurement": "Severity of Nausea Associated Migraine Headaches, Double-Blind", "setting": "subjects with migraine; TPM 100 mg", "value": 1.12}, {"measurement": "Severity of Nausea Associated Migraine Headaches, Difference", "setting": "subjects with migraine; TPM 100 mg", "value": "−0.10"}, {"measurement": "Severity of Nausea Associated Migraine Headaches, Baseline", "setting": "subjects with migraine; TPM 200 mg", "value": 1.12}, {"measurement": "Severity of Nausea Associated Migraine Headaches, Double-Blind", "setting": "subjects with migraine; TPM 200 mg", "value": 1.09}, {"measurement": "Severity of Nausea Associated Migraine Headaches, Difference", "setting": "subjects with migraine; TPM 200 mg", "value": "−0.03"}, {"measurement": "Statistical significance of effect on severity of nausea (in words)", "setting": "subjects with migraine; patients taking 100 mg topiramate", "value": "Statistically significant differences in the severity of nausea"}, {"measurement": "Effect on severity of nausea associated with migraine headaches (in words)", "setting": "subjects with migraine; topiramate with triptan class rescue medications, measurable at 100 mg and 200 mg", "value": "decrease in the severity of nausea"}, {"measurement": "Headache frequency", "setting": "[1]", "value": "significant decrease in headache frequency"}, {"measurement": "Headache-free time", "setting": "[1]", "value": "no headache for up to four weeks"}]}]}
